Source: patent publication US8512707B2, “Methods of treating drug-resistant cancers” (Seattle Genetics, Inc., priority 2006, dated 2013)
Read-outs that look alike come from different tables or passages of the source. Square brackets hold non-standard residues; d marks the D form. Peptide text beside a SMILES is read from it. * marks the point of attachment. Dolaproine = CO[C@@H]([C@@H]1CCCN1)[C@@H](C)C(=O)O; Dil = CC[C@H](C)[C@H](NC)[C@@H](CC(=O)O)OC; X1 = C[C@@H](N*)[C@@H](O)c1ccccc1; NMeV = CN[C@H](C(=O)O)C(C)C

What was measured:
[1] = system: HCT-15 (colon carcinoma) cells; assay: Alteration of drug potency by verapamil, free drugs; format: cell-based; conditions: for Fold Difference: IC50 drug alone divided by IC50 verapamil plus drug, HCT-15; for IC50: HCT-15, drug alone, 96 hr, resazurin
Experimental: Verapamil is a known inhibitor of the P-gp transporter. The following study was conducted to measure the effect of verapamil on P-gp-mediated transport of doxorubicin, vincristine, cisplatin and MMAF.
HCT-15 (colon carcinoma) cells were plated and allowed to adhere to the plates. Neat culture medium or medium containing 40 μM verapamil was added, and the cultures were incubated for 4 hr. Serial dilutions of doxorubicin, vincristine, cisplatin or MMAF were then added. The cultures were incubated to 96 hr and labeled with resazurin. Referring to Table 4, the values shown are the IC50 determined from 4-parameter curve fits. The fold difference was determined by dividing the IC50 of the drug alone treatment by that of the verapamil plus drug treated cultures.

A2780 and A2780adr = assay: Drug sensitivity of parental and drug resistant subline pair (resazurin); format: cell-based, human; conditions: IC50 of resistant line divided by IC50 of parental line, 96 hr
Experimental: (§1) The following parental and drug resistant cell lines were used to determine their MMAF-drug sensitivity.
(§2) The activity of various drugs against parental and drug resistant subline pairs was tested. The pairs of cell lines tested were A2780 and A2780adr; MES-SA and MES-SA/Dx5; NCI-H69 and NCI-H69/LX-4; and HL60 and HL60/RV. Cell lines were plated and incubated 24 hr. Culture medium containing serial dilutions of the drugs doxorubicin, vincristine, cisplatin, dolastatin 10 or MMAF were then added. The cultures were incubated to 96 hr and labeled with resazurin. Sensitivity to each drug was measured by determining the IC50 of the parent and drug resistant subline pair. The drug resistance (as “fold resistance”) was determined from the IC50 value of the resistant cell line divided by the IC50 value of the parental line. Mean fold resistance is the average across the cell line panel.

NCI-H69 and NCI-H69/LX-4 = assay: as above; format: cell-based, human; conditions: IC50 of resistant line divided by IC50 of parental line, 96 hr
Experimental: as §1, §2

HL60 and HL60/RV = assay: as above; format: cell-based; conditions: IC50 of resistant line divided by IC50 of parental line, 96 hr
Experimental: as §1, §2

MES-SA and MES-SA/Dx5 = assay: as above; format: cell-based; conditions: IC50 of resistant line divided by IC50 of parental line, 96 hr
Experimental: as §1, §2

NCI/ADR-RES cells = assay: Cell killing by free drugs or MMAF-ADCs with or without verapamil; format: cell-based; conditions: for Fold Difference: IC50 drug alone divided by IC50 drug plus verapamil; for IC50: Homo sapiens
Experimental: NCI/ADR-RES cells were plated and allowed to adhere. Neat culture medium or medium containing 40 μM verapamil was added, and the cultures were incubated for 4 hr. Serial dilutions of the free drugs (doxorubicin, cisplatin or MMAF) or MMAF ADCs (cBR96-vcMMAF or mOKT9-vcMMAF) were then added. The cultures were incubated to 96 hr and labeled with resazurin. Referring to Table 7, the values are the IC50 in […] (doxorubicin, cisplatin, MMAF) or […] (cBR96-vcMMAF, mOKT9-vcMMAF) determined from 4-parameter curve fits. The fold difference is determined by dividing the IC50 from the drug alone treatment by that of the drug treated plus verapamil cultures.

[2] = system: parental and drug resistant cell line pairs; assay: Drug sensitivity across the panel of parental/drug resistant cell line pairs; format: cell-based; conditions: for Mean Fold Resistance: average across the cell line panel; for difference in sensitivity of parent and resistant line: statement over all cell line pairs of Table 3
Experimental: as §1, §2

[3] = system: HCT-15 (colon carcinoma) cells; assay: Alteration of drug potency by verapamil, free drugs; format: cell-based; conditions: read-out: IC50 +10 μM Verapamil, HCT-15, verapamil 4 hr before drug, 96 hr, resazurin
H69 and H69/LX4 = assay: Cytotoxic effects on H69 and its P-glycoprotein overexpressing counterpart; format: cell-based, human; conditions: free drugs, 6 days, Alamar Blue (FIG. 2A, 2B)
Experimental: (§3) Log phase cultures of cells were collected and cells plated at seeding densities ranging from 500-10,000 cells/well according to pre-determined conditions. After incubating 24 h to allow surface protein reconstitution, serial dilutions of test molecules were added and cultures incubated a further 4-6 days depending on cell line. Assessment of cellular growth and data reduction to generate IC50 values was done using Alamar Blue (Biosource International, Camarillo, Calif.) dye reduction assay as previously described, according to previously published methods (Doronina et al., supra; Hamblett et al., supra; Law et al., 2004, Clin. Cancer Res. 10:7842-51; Francisco et al., supra). Briefly, a 40% solution (wt/vol) of Alamar Blue was freshly prepared in complete media just before cultures were added. Ninety-two hours after drug exposure, Alamar Blue solution was added to cells to constitute 10% culture volume. Cells were incubated for 4 h, and dye reduction was measured on a Fusion HT fluorescent plate reader (Packard Instruments, Meriden, Conn.).

[4] = Maximum tolerated dose of free drugs in mice; format: in vivo; conditions: free drug
Description: The synthesis of MMAE proceeded through a solution-phase route involving the coupling of the amino-protected N-terminal trimer to the C-terminal dimer. Due to the convergent nature of the process, it was possible to produce a large number of auristatins with varied solubilities, potencies and pharmacokinetic properties. […] MMAF-OMe is a prodrug of MMAF (FIG. 1), with the potential of having facilitated intracellular uptake due to the presence of a neutral C-terminus. In addition, intracellular ester hydrolysis of MMAF-OMe should rapidly generate MMAF, a C-terminally charged molecule expected to have impaired membrane translocation capabilities. […] In addition, the maximum tolerated dose in mice of MMAF (>16 mg/kg) was much higher than MMAE (1 mg/kg). Thus, MMAF was of great interest for targeted delivery, since the free drug had attenuated potency, lower toxicity, and much higher aqueous solubility compared to MMAE. Facilitated intracellular transport was expected to greatly enhance its activity.

Karpas 299 cells = assay: In vitro growth inhibition (Alamar Blue); format: cell-based, human; conditions: 96 h
Experimental: as §3

hematologic cell lines = conditions: previously displayed (Doronina et al.; Law et al.); cited from earlier work
[5] = system: 786-O renal cell carcinoma; assay: In vitro growth inhibition (Alamar Blue); format: cell-based; conditions: Table 8, free auristatins, 96 h
Experimental: as §3

[6] = system: H3396 breast carcinoma cells; assay: In vitro growth inhibition (Alamar Blue); format: cell-based; conditions: Table 8, free auristatins, 96 h
Experimental: as §3

[7] = system: Caki-1 renal cell carcinoma; assay: In vitro growth inhibition (Alamar Blue); format: cell-based; conditions: Table 8, free auristatins, 96 h
Experimental: as §3

SU-DHL-1 = assay: In vitro growth inhibition (Alamar Blue); format: cell-based, human; conditions: 96 h, ADC concentrations represented by the drug component
Experimental: as §3
(§4) Cells were exposed to the ADCs continuously for 96 h, and the cytotoxic effects, as determined by Alamar Blue conversion, were compared to those of free MMAF.

HDLM-2 = assay: In vitro growth inhibition (Alamar Blue); format: cell-based, human; conditions: 96 h, ADC concentrations represented by the drug component
Experimental: as §3, §4

SUP-M2 = assay: In vitro growth inhibition (Alamar Blue); format: cell-based, human; conditions: 96 h, ADC concentrations represented by the drug component
Experimental: as §3, §4

DEL = assay: In vitro growth inhibition (Alamar Blue); format: cell-based, human; conditions: 96 h, ADC concentrations represented by the drug component
Experimental: as §3, §4

L428 = assay: In vitro growth inhibition (Alamar Blue); format: cell-based, human; conditions: 96 h, ADC concentrations represented by the drug component
Experimental: as §3, §4

SR-786 = assay: In vitro growth inhibition (Alamar Blue); format: cell-based, human; conditions: 96 h, ADC concentrations represented by the drug component
Experimental: as §3, §4

KMH-2 = assay: In vitro growth inhibition (Alamar Blue); format: cell-based, human; conditions: 96 h, ADC concentrations represented by the drug component
Experimental: as §3, §4

L540cy = assay: In vitro growth inhibition (Alamar Blue); format: cell-based; conditions: 96 h, ADC concentrations represented by the drug component
Experimental: as §3, §4

HH = assay: In vitro growth inhibition (Alamar Blue); format: cell-based; conditions: 96 h, ADC concentrations represented by the drug component
Experimental: as §3, §4

RPMI 6666 = assay: In vitro growth inhibition (Alamar Blue); format: cell-based; conditions: 96 h, ADC concentrations represented by the drug component
Experimental: as §3, §4

[8] = system: panel of CD30 positive and negative hematologic cell lines; assay: In vitro growth inhibition, panel of hematologic cell lines; format: cell-based; conditions: mean over the lines of Table 9; ADC concentrations represented by the drug component; read-out: IC50 Mean (all lines)
Experimental: as §3, §4

WSU-NHL = assay: In vitro growth inhibition (Alamar Blue), CD30 negative line; format: cell-based, human; conditions: 96 h, ADC concentrations represented by the drug component
Experimental: as §3, §4

Aqueous solubility = format: physicochemical

Row | SMILES | Fold Difference [1] | Fold Resistance A2780adr / A2780 (A2780 and A2780adr) | Fold Resistance NCI-H69/LX4 / NCI-H69 (NCI-H69 and NCI-H69/LX-4) | Fold Resistance HL60/RV / HL60 (HL60 and HL60/RV) | Fold Resistance MES-SA/Dx5 / MES-SA (MES-SA and MES-SA/Dx5) | Fold Difference (NCI/ADR-RES cells) | Mean Fold Resistance [2] | IC50 (Karpas 299 cells; Table 8, free auristatins) | IC50 [5] | IC50 [6] | IC50 [7] | other results
1 | N.N.[Cl][Pt][Cl] [Cisplatin] | 1.04 fold | 2.7 fold | 4.7 fold | 13 fold | 1.6 fold | 0.88 fold | 5.5 fold | – | – | – | – | difference in sensitivity of parent and resistant line [2]: thirteen
2 | CC[C@H](C)[C@@H]([C@@H](CC(=O)N1CCC[C@H]1[C@H](OC)[C@@H](C)C(=O)N[C@@H](Cc1ccccc1)c1nccs1)OC)N(C)C(=O)[C@@H](NC(=O)[C@H](C(C)C)N(C)C)C(C)C [Dolastatin 10] | – | 500 fold | – | – | 8275 fold | – | >500 fold | – | – | – | – | –
3 | COc1cccc2c1C(=O)c1c(O)c3c(c(O)c1C2=O)C[C@@](O)(C(=O)CO)C[C@@H]3O[C@H]1C[C@H](N)[C@H](O)[C@H](C)O1 [Doxorubicin] | 5.4 fold | 137 fold | 103 fold | 24 fold | 83 fold | 17.9 fold | 88 fold | – | – | – | – | IC50 ([1]; Homo sapiens): 335 nM; IC50 ([3]; Homo sapiens): 62 nM; fold less sensitive H69/LX-4 compared to the parental cell (H69 and H69/LX4): approximately 100 fold; IC50 (NCI/ADR-RES cells; 96 h, read-out: IC50 Drug or ADC Only): 10000 nM; IC50 (NCI/ADR-RES cells; read-out: IC50 (Drug or ADC) + 10 μM Verapamil): 560 nM
4 | CC[C@H](C)[C@@H]([C@@H](CC(=O)N1CCC[C@H]1[C@H](OC)[C@@H](C)C(=O)N[C@H](C)[C@@H](O)c1ccccc1)OC)N(C)C(=O)[C@@H](NC(=O)[C@@H](NC)C(C)C)C(C)C [MMAE, reference compound] (H-[NMeV]V[Dil][Dolaproine]-X1) | – | – | – | – | – | – | – | 0.5 nM | 2 nM | 0.1 nM | 0.7 nM | maximum tolerated dose in mice [4]: 1 mg/kg; IC50 (hematologic cell lines): 1 to 5 nM
5 | CC[C@H](C)[C@@H]([C@@H](CC(=O)N1CCC[C@H]1[C@H](OC)[C@@H](C)C(=O)N[C@@H](Cc1ccccc1)C(=O)O)OC)N(C)C(=O)[C@@H](NC(=O)[C@@H](NC)C(C)C)C(C)C [MMAF, N-methylvaline-valine-dolaisoleuine-dolaproline-phenylalanine] (H-[NMeV]V[Dil][Dolaproine]F-OH) | 5.7 fold | 7.5 fold | 4 fold | 6 fold | 3 fold | 6.4 fold | 5 fold | 119 nM | 257 nM | 105 nM | 200 nM | maximum tolerated dose in mice [4]: > 16 mg/kg; IC50 [1]: 1000 nM; IC50 (Karpas 299 cells; ADC concentrations represented by the drug component): 119 nM; IC50 [3]: 174 nM; IC50 (SU-DHL-1): 34.7 nM; IC50 (HDLM-2): 66 nM; IC50 (SUP-M2): 79.7 nM; IC50 (DEL): 69 nM; IC50 (L428): 68 nM; IC50 (SR-786): 38.1 nM; IC50 (KMH-2): 45.4 nM; IC50 (L540cy): 70.4 nM; IC50 (HH): 30.7 nM; IC50 (RPMI 6666): 164 nM; IC50 [8]: 70.4 nM; IC50 (WSU-NHL): 60.3 nM; fold less sensitive H69/LX-4 compared to the parental cell (H69 and H69/LX4): 3 fold; difference in sensitivity of parent and resistant line [2]: thirteen; aqueous solubility compared to MMAE (Aqueous solubility): much higher
6 | CC[C@H](C)[C@@H]([C@@H](CC(=O)N1CCC[C@H]1[C@H](OC)[C@@H](C)C(=O)N[C@@H](Cc1ccccc1)C(=O)OC)OC)N(C)C(=O)[C@@H](NC(=O)[C@@H](NC)C(C)C)C(C)C [MMAF-OMe] (H-[NMeV]V[Dil][Dolaproine]F-OMe) | – | – | – | – | – | – | – | < 0.001 nM | 0.01 nM | < 0.001 nM | < 0.001 nM | –
7 | CC[C@]1(O)C[C@H]2CN(CCc3c([nH]c4ccccc34)[C@@](C(=O)OC)(c3cc4c(cc3OC)N(C=O)[C@H]3[C@@](O)(C(=O)OC)[C@H](OC(C)=O)[C@]5(CC)C=CCN6CC[C@]43[C@@H]65)C2)C1 [Vincristine] | >10,000 fold | 2000 fold | 56888 fold | 258 fold | 284 fold | – | >260 fold | – | – | – | – | IC50 ([1]; Homo sapiens): 70 nM; IC50 ([3]; Homo sapiens): < 0.001 nM
